From patent publication US20140096445A1, “METHOD OF CULTIVATION IN WATER DEFICIT CONDITIONS” (SYNGENTA PARTICIPATIONS AG, priority 2011, published 2014)
Marks after values point to notes of the source that are not given here.

Legend:
Type in all cases: in vivo
[1] = test system: corn; assay: SDI split plot field study, 113 day maturity corn hybrid, Examples 13-14; details: 50% irrigated deficit
Experimental: A randomized complete block (split plot) study using Subsurface Drip Irrigation (SDI) was conducted on a deep silt loam soil using a 113 day maturity corn hybrid. This trial was conducted to quantify the impact of treatments on grain yield and water productivity of corn under limited (deficit) and fully-irrigated setting. The study utilized a subsurface drip irrigation (SDI) system with a nominal dripline flowrate of 0.25 gpm/100 ft for a 5-ft dripline spacing and 24-inch emitter spacing, installed at a depth of 16-18 inches. Irrigation control panels, chemical injection pumps, and filters were housed at the irrigation well house to manage irrigation and chemigation events.
The field study was set up as a randomized complete plot design with three replications on silt loam soil.
Each plot was 8 rows wide (6.1 meters) by 15 meters long. Soil water status was monitored throughout the growing season using soil moisture sensors. Corn seed was planted with a precision planter at a depth of 2 inches and rows spaced at 30 inches. The planting population was 30,000 seeds per acre. Testing parameters, and irrigation levels were conducted according to the Kansas State University experimental procedure [see, e.g.,: (1) Lamm, F. R., A. J. Schlegel, and G. A. Clark. 2003. Development of a Best Management Practice for Nitrogen Fertigation of Corn Using SDI. Appl. Engr in Agric. and (2) Lamm, F. R., H. L. Manges, L. R. Stone, A. H. Khan, and D. H. Rogers. 1995. Water requirement of subsurface drip-irrigated corn in northwest Kansas. Trans. ASAE, 38(2):441-448.]. Moisture levels, irrigation levels, evapotranspiration, and plant health were measured throughout the growing season. Climatic variables were measured (air temperature, rainfall, solar and net radiation, relative humidity, rainfall, wind speed and direction) throughout the season.
Irrigation for the fully irrigated treatments was scheduled according to need by a climatic water budget using calculated evapotranspiration as a withdrawal and with rainfall and irrigation as deposits. Irrigation amounts for each event for the fully irrigated plots were generally 0.5 inches for each event. The deficit irrigation treatments were scheduled at approximately 50% of the fully irrigated plots (5.9 inches/acre vs. 13.55 inches of water/acre). Volumetric soil water content was measured in one-foot increments to a depth of 8 ft on an approximately weekly basis throughout the crop season to determine total water use. Crop water use was calculated as the sum of irrigation, precipitation and changes in soil water between the initial and final soil water sampling dates. Water productivity was calculated as the crop yield divided by the seasonal water use. Maintenance crop protection products were applied as needed to manage weeds and pests throughout the season for all treatments including the control. Moddus (trinexapac-ethyl) was foliar-applied (tractor mounted sprayer) twice at a rate of 250 gai/ha at approximately the V3+V7 stages of the corn. Azoxystrobin (Quadris) was applied twice via drip irrigation at a rate of 0.8 fl. oz/1000 linear ft (261 gai/ha) at approximately V6 & R1 stages of the corn. Crop yield from each replication was recorded after harvest and adjusted to 15% moisture content. Corn yield components of crop grain yield, plants/area, ears/plant, and kernel weight were measured by hand harvesting a representative sample (20 feet long for one crop row near the center of each subplot).

[2] = test system: corn; assay: Greenhouse sub-surface chemigation, yield and root architecture under deficit water, Examples 20-23; details: for Yield (% difference from UTC) / Relative number of fine roots (% difference from UTC): sub-surface chemigation at V3/V4, maximum labeled rates, 50% plant-available water; for Relative number of fine roots (% difference from UTC): within 2 weeks of harvest; for Yield compared with the control, statistical statement: sub-surface chemigation, abiotic stress, P values <0.001 at the 95th percentile confidence interval
Description: In this experiment, standardized growth conditions were applied across all corn treatments including: soil-water availability, soil texture and composition, soil chemical and physical properties, meteorological and environmental parameters, and plant nutrition in a greenhouse. No indication of plant disease or pest damage was observed over the course of the study and no pest management program was necessary. A homogeneous sand-organic matter soil mixture (0.18% organic matter) was used as the growth medium in 55-gal containers. These containers were used as a weighing lysimeter, where daily changes in system weight were used to calculate plant transpiration. Four corn plants were grown in each 55-gal container. Three 55-gal containers (12 plants total) made up each treatment. All irrigation and chemical treatments were applied via sub-surface irrigation. Chemical treatments consisted of: azoxystrobin (Quadris), paclobutrazol (Trimmit), trinexapac-ethyl (Moddus), and propiconazole (Tilt) at maximum labeled rates.
Corn plants were grown from seed and transplanted in the 55-gal drums approximately 14 days after planting. Uniform adequate irrigation was applied up to growth stage V3/V4 to ensure plant establishment. Chemical treatment applications were applied at growth stage V3/V4 via sub-surface chemigation. At stage V3/V4, irrigation was decreased to replicate deficit water conditions across all treatments for the remainder of the study period. Irrigation was managed daily to maintain 50% plant-available water. Visual signs of abiotic plant stress were observed approximately 30 days after chemical application. All corn plants were grown to yield and cobs were harvested when kernels were uniformly dry (15% moisture content). Root architecture, specifically relative number of fine roots, was measured at within 2 weeks of harvest using a digital imaging technique. Fine roots are related to water uptake productivity, which is directly tied to the ability of the plant to access soil-water under stress.

[3] = test system: corn; assay: SDI chemigation field study on grain yield under rainfed conditions, Examples 17-19; details: for Yield: optimum nitrogen rate 200 lbs. N/acre
Experimental: A chemigation study using Subsurface Drip Irrigation (SDI) was conducted to quantify the impact of treatment effects on grain yield under rainfed conditions. The field study was set up as a randomized complete plot design (split plot) with three replications on silt loam soil. Each plot was 8 rows wide (6.1 meters) by 34 meters long. Soil water status was monitored on an hourly basis every 30 cm up to 1.2 meters throughout the growing season using soil moisture sensors. Corn seed was planted with a precision planter at a depth of 2 inches and rows spaced at 30 inches. The planting population was 30,000 seeds per acre. Testing parameters and harvesting were conducted according to the University of Nebraska experimental procedure (see, e.g.,: Irmak, S, D. Z. Haman, and R. Bastug. Determination of Crop Water Stress Index for irrigation Timing and Yield Estimation of Corn. 2000. Agronomy Journal. 92:1221-1227). Moisture levels, evapotranspiration, and plant health were measured throughout the growing season. All microclimatic variables were measured (air temperature, rainfall, solar and net radiation, relative humidity, rainfall, wind speed and direction) so that the researcher could quantify the range of the microclimatic conditions under which this research was conducted to define the boundaries of experimental conditions.
No irrigation was applied to rainfed plots. […] Maintenance crop protection products were applied as needed to manage weeds and pests throughout the season for all treatments including the control. Azoxystrobin (Quadris) was applied twice via drip irrigation at a rate of 0.8 fl. oz/1000 linear ft (261 gai/ha) or by foliar application (tractor mounted sprayer) at 14 fl. oz./acre (261 gai/ha) at approximately the V6 & R1 stages of the corn. Moddus (trinexapac-ethyl) was foliar-applied (tractor mounted sprayer) once at a rate of 250 gai/ha at approximately the V7 stage of the corn. Crop yield from each replication was recorded after harvest and adjusted to 15.5% moisture content.

[4] = 250 gai/ha, foliar applied once (V7), 0% irrigated

Compound | Yield ([1]; 250 gai/ha, foliar-applied twice (V3+V7)) [Bu./acre] | % Yield Increase by Product over Untr./50% irr. ([1]; 250 gai/ha, foliar-applied) | Water Prodctivity (IWUE) ([1]; 250 gai/ha, foliar-applied) | Yield (% difference from UTC) [2] | Relative number of fine roots (% difference from UTC) [2] | Yield compared with the control, statistical statement [2] | % Yield Increase by Product over Untr./0% irr. [3, 4] | Yield [3, 4] [Bu./acre] | Yield ([1]; 261 gai/ha, SDI chemigated twice (V6 & R1)) | % Yield Increase by Product over Untr./50% irr. ([1]; 261 gai/ha, SDI chemigated) | % increase in Water Productivity by Product over 50% irr. ([1]; 261 gai/ha, SDI chemigated) | Water Prodctivity (IWUE) ([1]; 261 gai/ha, SDI chemigated) | Yield ([3]; 261 gai/ha, SDI chemigated (V6 & R1), 0% irrigated dryland/rainfed) [Bu./acre] | % Yield Increase by Product over Untr./0% irr. ([3]; 261 gai/ha, SDI chemigated, 0% irrigated dryland/rainfed) | Yield ([3]; 261 gai/ha, foliar applied (V6 & R1), 0% irrigated dryland/rainfed) [Bu./acre] | % Yield Increase by Product over Untr./0% irr. ([3]; 261 gai/ha, foliar applied, 0% irrigated dryland/rainfed)
CCOC(=O)C1CC(=O)C(=C(O)C2CC2)C(=O)C1 (stereo not shown) [TXP, trinexapac-ethyl] | 235 | +28% Incr. over | 462 pounds of corn per inch of water applied | 15.6† % | 34.3† % | statistically different from the control | +4% incr over Untr./0% irr. | 141.9 | – | – | – | – | – | – | – | –
CO/C=C(/C(=O)OC)c1ccccc1Oc1cc(Oc2ccccc2C#N)ncn1 [Azoxystrobin, azoxystrobin] | – | – | – | 12.5† % | 37.3† % | statistically different from the control | – | – | 212^ Bu./acre | +16% Incr. over | +18% Incr. | 426 pounds of corn per inch of water applied | 145.4 | +7% incr over Untr./0% irr. | 151.1 | +11% incr over Untr./0% irr.
